Patent publication US20080145313A1, “Compositions and Methods for the Treatment and Prevention of Neoplastic Disorders” (Genesis Research & Development Corporation Limited, priority 2006, published 2008)
Marks after values point to notes of the source that are not given here.

System: wt HCT-116 cells
Test: Growth inhibition of siRNA-transfected wt HCT-116 cells, SYBR Green I DNA content
Type: cell-based
Conditions: standardized against control siRNA
Method: A549 cells (human lung cancer cell line; ATCC No. CCL-185), SK-MeI-5 cells (human melanoma cell line; ATCC No. HTB-70), MCF-7 cells (human adenocarcinoma cell line; ATCC No. HTB-22), HCT-116 cells (colorectal carcinoma; ATCC CCL-247) and HCT-116 p53 null cells (derived from ATCC No. CCL-247; Bunz et al., Science 282:1497-1501, 1998) were cultured in RPMI 1640 medium with 10% v/v heat-inactivated fetal calf serum (FCS). Cells were seeded at a density of 5×10^4 cells/cm^2 in multi-well tissue culture plates. Sequences of Stealth™ siRNA duplexes (Invitrogen) targeting human ribonucleotide reductase subunit 1 (SEQ ID NO: 22) and subunit 2 (SEQ ID NO; 38) are given in SEQ ID NO: 4830-4832 (DNA), and SEQ ID NO: 5136-5138 (RNA) for RRM1, and SEQ ID NO: 5306-5308 (DNA), and SEQ ID NO: 5303-5305 (RNA) for RRM2. siRNAs were transfected at different concentrations into cells using Lipofectamine™ RNAiMAX transfection reagent (Invitrogen). Non-specific siRNA (SEQ ID NO: 4804 and 4805 (DNA), and SEQ ID NO: 5301 and 5302 (RNA)) were used as controls. The cellular DNA content was measured using a SYBR Green I-based fluorometric assay at 24, 48, 72 and 96 hours after transfection (120 hours for the MCF-7 cells), as follows. At the indicated time points following reverse transfection, cells were harvested and frozen at −80° C. overnight. Cells were thawed and cell lysis buffer (phosphate-buffered saline (PBS) containing 1% Triton X-100, pH 7) and SYBR Green I (1:10^5 V/V; Invitrogen) was added to the wells and incubated overnight in the dark at 4° C.
The following day, cell lysates were mixed thoroughly, and DNA fluorescence was measured with a Wallac Victor^2 plate reader (Turku, Finland) set at an excitation frequency of 485 nm and measuring emission at 535 nm.
To determine the effect of the p53-status of cells on RRM1 and RRM2 knockdown, growth inhibition of wild type (wt) HCT-116 and p53 null HCT-116 cells by RRM1 and RRM2-targeted siRNA were determined. Cells were reverse transfected with 1.0 and 10 nM RRM1-3 (SEQ ID NO: 4832 (DNA), and SEQ ID NO: 5138 (RNA)), 1.0 and 10 nM RRM2-2 (SEQ ID NO: 5307 (DNA), and SEQ ID NO: 5304 (RNA)) or 10 nM control siRNA (SEQ ID NO: 4804 (DNA), and SEQ ID NO: 5301 (RNA)), and growth measured daily for up to 4 days post transfection.
siRNA-mediated RNAi was also determined on a panel of different cell lines. A549, SK-MeI-5, wt HCT-116, HCT-116−/−p53 and MCF-7 cells were transfected with 10 nM siRNAs targeting YBX-1 and growth inhibition determined as described above. The YBX1 siRNAs are given in SEQ ID NO: 4981 to 4985 (DNA) and SEQ ID NO: 5276-5280 (RNA). A non-specific siRNA (SEQ ID NO: 4804 (DNA) and SEQ ID NO: 5301 (RNA)) was used as control. Growth inhibition by the siRNAs, given in Table 14, was standardized against the inhibition obtained with the control siRNA.
HCT-116 and A549 cells were transfected with 0.1, 1.0 and 10 nM siRNA targeting TYMS and DHFR (SEQ ID NO: 4833 to 4838 (DNA), and SEQ ID NO: 5139-5144 (RNA)) using Lipofectamine™ RNAiMAX and incubated for 96 h, in either normal fetal calf serum or serum dialyzed to remove low molecular weight molecules (cut-off 10 kDa). Growth of cells was measured by measuring the total DNA content per well using the SYBR Green assay as described above, and values are given as the percentage of the averaged control values. […] Inhibition increased with increasing siRNA concentration, which was not observed with a non-specific control siRNA. […]

Substance | growth inhibition, wt HCT-116 cells (1 nM siRNA) | growth inhibition, wt HCT-116 cells (10 nM siRNA)
SEQ ID NO: 4984: siRNA targeting YBX1 (chain 1 CAAGGTAGACCAGTGAGGCAGAATA; chain 2 CAAGGUAGACCAGUGAGGCAGAAUA; chemistry not given here; one strand in two spellings) | +* (At least 20% inhibition) | 
SEQ ID NO: 4985: siRNA targeting YBX1 (chain 1 CAGCCTAGAGAGGACGGCAATGAAG; chain 2 CAGCCUAGAGAGGACGGCAAUGAAG; chemistry not given here; one strand in two spellings) | −* (No inhibition) | 
SEQ ID NO: 4982: siRNA targeting YBX1 (chain 1 TTTGCTGGTAATTGCGTGGAGGACC; chain 2 UUUGCUGGUAAUUGCGUGGAGGACC; chemistry not given here; one strand in two spellings) |  | +++ (At least 70% inhibition)
